The record followed here is PubChem BioAssay AID1277 (The Scripps Research Institute Molecular Screening Center, 2008).

In the test the target is Neuropeptide Y receptor type 1 (Homo sapiens) (UniProt P25929). Kind of test: IC50 of human NPY-Y1 blockers – cell-based, dose response (AID 1277). The following applies: NPY-Y1 expressing cells, antagonist mode.

By IC50 is commonly meant the concentration at which inhibition is half-maximal.

Active and inactive are the calls of the source. How the calls were made is not given here.

Chain of Neuropeptide Y receptor type 1 (Homo sapiens) (P25929 whole entry, looked up): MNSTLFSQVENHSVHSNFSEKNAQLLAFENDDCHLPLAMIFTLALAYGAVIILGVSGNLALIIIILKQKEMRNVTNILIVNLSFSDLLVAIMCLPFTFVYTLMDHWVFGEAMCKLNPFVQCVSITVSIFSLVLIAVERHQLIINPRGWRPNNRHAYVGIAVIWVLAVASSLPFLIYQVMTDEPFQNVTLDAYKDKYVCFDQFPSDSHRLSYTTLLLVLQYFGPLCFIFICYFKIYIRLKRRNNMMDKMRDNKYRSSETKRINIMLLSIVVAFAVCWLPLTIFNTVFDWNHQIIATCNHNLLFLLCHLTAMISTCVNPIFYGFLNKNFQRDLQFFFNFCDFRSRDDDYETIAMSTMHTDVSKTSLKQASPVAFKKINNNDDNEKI

In the case of `CC(C)CC(c1nnnn1C1CCCC1)N1CCN(c2ccccc2F)CC1` (centres undefined), the IC50 was < 35 µM (inactive).

With `Cc1cc(C(=O)CSc2nc3ccccc3c(=O)n2C)c(C)n1CC1CCCO1` (centres undefined), the IC50 was < 35 µM (inactive). In the case of `COc1cccc(Oc2cn[nH]c2-c2ccc(O)cc2O)c1`, the IC50 is < 35 µM (inactive). Take `Cn1ccnc1C1CCCCN1Cc1nc(-c2ccc3c(c2)OCO3)no1` (centres undefined): the IC50 is < 35 µM (inactive).
